Here are results for 3 compounds from patent USRE39138E1, “Monoclonal antibody specific for advanced glycosylation endproducts in biological samples” (Alteon Incorporated, priority 1994, dated 2006).

Experiment [1] relates to mAb 4G9. Kind of experiment: competition ELISA: browned compounds compete with plate-bound BSA-AGE for mAb 4G9. The note with it: concentration based on the original proteins or peptides. The format is binding, murine. As to the method:
Production of AGE proteins. All proteins and peptides were browned with glucose, ribose or glucose 6-phosphate in 300 mM sodium phosphate buffer, pH 7.4, for 8-12 weeks at 37° C. The control proteins were treated the same way except the sugars were omitted.
The competition ELISA was performed by pre-coating microtiter plates with BSA-AGE and blocking with Assay Buffer. The plates was washed and mAb 4G9 and increasing concentrations of the competitors listed in Table 1 were added and simultaneously incubated for 1 hr at 37° C. The unbound materials were removed by extensive washing and the bound mAb was detected with alkaline phosphatase labeled anti-mouse antibodies similar to direct ELISA. All washes were in TBS-T wash solution: all incubations proceeded for 1 hr at 37° C.
A general note: ELISA stands for enzyme-linked immunosorbent assay.

Experiment [2] deals with Hb-AGE. The note with it: diabetic patients treated for 28 days; cited from earlier work.
The mark [3] stands for this setting: protein or peptide browned with ribose.

Regarding Hemoglobin, the half-maximal inhibitory concentration (IC50) – broadly, the midpoint of a concentration-inhibition curve – in experiment [1] (setting [3]) is 200 µM.

`N=C(N)NN` [aminoguanidine]: the “levels of Hb-AGE at the end of the treatment period” value in experiment [2] is on record as “significantly decreased”.

In the case of Arg-lys, the half-inhibitory concentration (IC50) in experiment [1] (protein or peptide browned with glucose) was found to be 250 µM; in experiment [1] (setting [3]) it was 50 µM.
